Measurements: patent publication US20230250098A1 (priority 2021, published 2023)
Entries after “also recorded” stand apart in the source; their conditions may differ. Read-outs that look alike come from different tables or passages of the source.

Tests used:
HA-mouse μOP = molecular target: T1, HA-mouse μOP (Mus musculus, UniProt P42866); assay: GloSensor cAMP inhibition assay in transfected HEK cells; assay type: cell-based; settings: for cAMP α: efficacy normalized to positive control DAMGO; for IC50 / cAMP pIC50: inhibition of forskolin-induced cAMP
T1 construct: HA (N); expressed in transfected cells; host or cells: HEK cells, transient transfection together with pGloSensor22F

FLAG-mouse δOP = molecular target: T2, FLAG-mouse δOP (Mus musculus, UniProt P32300); assay: as above; assay type: cell-based; settings: for cAMP α: efficacy normalized to positive control Leu-Enk; for IC50 / cAMP pIC50: inhibition of forskolin-induced cAMP
T2 construct: FLAG (N); expressed in transfected cells; host or cells: HEK cells (HEK-293), transient transfection together with pGloSensor22F

FLAG-mouse κOP = molecular target: T3, FLAG-mouse κOP (Mus musculus, UniProt P33534); assay type: cell-based; settings: for IC50: read-out: cAMP IC50
T3 construct: FLAG (N); expressed in transfected cells; host or cells: HEK cells, transient transfection together with pGloSensor22F

δOP [1] = molecular target: T4, δOP (Homo sapiens, UniProt P41143); assay type: cell-based
C57Bl/6 wild-type mice [2] = assay: Two-bottle choice alcohol paradigm (drinking in the dark, 10% ethanol vs water); assay type: in vivo, mouse; settings: systemic (i.p.) injection; modified 2-bottle choice; male C57BL/6 mice; FIG. 1
C57Bl/6 wild-type mice [3] = settings: cited from earlier work; for alcohol consumption, in words (previous reports): dose not stated; for alcohol intake, in words (previous reports): 10 mg·kg^−1
male, WT mice [4] = settings: dose not stated; cited from earlier work
WT mice [5] = settings: 7-hydroxymitragynine dose not stated; paynantheine 10 mg·kg^−1; cited from earlier work
δOP [6] = molecular target: T4, δOP; assay type: binding; parameters: membranes isolated; settings: [3H]DPDPE, CHO membranes; for Ki: read-out: Binding Ki
κOP = κOP (Homo sapiens, UniProt P41145); assay type: binding; parameters: membranes isolated; settings: for Ki: read-out: Binding Ki
δOP KO mice [7] = assay: Two-bottle choice alcohol paradigm in δOP KO mice; assay type: in vivo, mouse; settings: 10 mg·kg^−1; male δOP KO mice
male mice = assay: Tail flick thermal nociception assay; assay type: in vivo, mouse
μOP [8] = molecular target: T5, μOP (Homo sapiens, UniProt P35372); assay type: binding; parameters: membranes isolated; settings: [3H]DAMGO, CHO membranes
WT mice [9] = assay: Locomotor evaluation; settings: 10 mg·kg^−1
δOP KO mice [10] = assay: Seizure assay in δOP KO mice; settings: 30 mg·kg^−1 i.p.
wildtype mice = assay: Seizure assay (modified racine scale)
male, WT mice [11] = assay: Conditioned place preference (brief and extended); settings: 10 mg·kg^−1
μOP [12] = molecular target: T5, μOP; assay type: cell-based; settings: normalized to positive control DAMGO

T3 sequence (P33534 whole entry): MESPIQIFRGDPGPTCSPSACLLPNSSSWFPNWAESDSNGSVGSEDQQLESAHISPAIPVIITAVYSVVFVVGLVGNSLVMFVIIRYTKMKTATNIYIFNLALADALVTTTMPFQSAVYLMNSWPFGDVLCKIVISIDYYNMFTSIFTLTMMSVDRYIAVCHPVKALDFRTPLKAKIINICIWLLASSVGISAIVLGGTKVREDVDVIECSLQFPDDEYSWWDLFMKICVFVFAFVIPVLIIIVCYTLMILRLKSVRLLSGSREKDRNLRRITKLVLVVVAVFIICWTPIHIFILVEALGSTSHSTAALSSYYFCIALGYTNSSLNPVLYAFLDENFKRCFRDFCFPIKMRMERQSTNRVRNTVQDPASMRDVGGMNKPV
T5 sequence (P35372 whole entry): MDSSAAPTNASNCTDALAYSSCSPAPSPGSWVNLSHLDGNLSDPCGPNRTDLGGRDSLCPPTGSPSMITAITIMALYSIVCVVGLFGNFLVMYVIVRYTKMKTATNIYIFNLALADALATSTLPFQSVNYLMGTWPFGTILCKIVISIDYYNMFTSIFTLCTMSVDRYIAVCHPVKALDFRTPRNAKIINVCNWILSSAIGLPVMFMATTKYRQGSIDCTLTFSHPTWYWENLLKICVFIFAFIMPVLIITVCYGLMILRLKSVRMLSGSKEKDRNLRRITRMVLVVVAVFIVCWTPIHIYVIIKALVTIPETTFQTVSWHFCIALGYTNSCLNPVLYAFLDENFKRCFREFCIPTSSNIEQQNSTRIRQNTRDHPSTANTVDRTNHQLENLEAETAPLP
T1 sequence (P42866 whole entry): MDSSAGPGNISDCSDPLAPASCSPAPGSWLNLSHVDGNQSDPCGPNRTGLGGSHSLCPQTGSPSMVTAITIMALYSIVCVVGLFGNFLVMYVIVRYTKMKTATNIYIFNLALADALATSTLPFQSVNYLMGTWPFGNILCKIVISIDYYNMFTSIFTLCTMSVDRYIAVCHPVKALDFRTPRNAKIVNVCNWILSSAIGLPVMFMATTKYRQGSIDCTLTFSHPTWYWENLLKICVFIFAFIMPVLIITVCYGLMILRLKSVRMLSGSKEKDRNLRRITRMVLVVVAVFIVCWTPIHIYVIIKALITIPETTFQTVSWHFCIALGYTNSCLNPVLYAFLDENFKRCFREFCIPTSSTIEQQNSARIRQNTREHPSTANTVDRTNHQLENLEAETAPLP
Chain of κOP (P41145 whole entry): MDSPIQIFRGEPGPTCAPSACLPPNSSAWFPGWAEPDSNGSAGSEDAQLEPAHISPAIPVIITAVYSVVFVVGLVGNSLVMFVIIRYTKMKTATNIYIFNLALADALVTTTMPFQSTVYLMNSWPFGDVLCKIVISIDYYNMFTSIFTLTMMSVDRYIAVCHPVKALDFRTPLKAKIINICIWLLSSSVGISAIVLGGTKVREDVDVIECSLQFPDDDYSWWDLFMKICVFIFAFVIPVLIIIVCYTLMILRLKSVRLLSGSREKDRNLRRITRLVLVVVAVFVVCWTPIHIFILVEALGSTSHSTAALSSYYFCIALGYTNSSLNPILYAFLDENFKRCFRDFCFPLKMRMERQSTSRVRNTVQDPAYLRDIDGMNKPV
T4 sequence (P41143 whole entry): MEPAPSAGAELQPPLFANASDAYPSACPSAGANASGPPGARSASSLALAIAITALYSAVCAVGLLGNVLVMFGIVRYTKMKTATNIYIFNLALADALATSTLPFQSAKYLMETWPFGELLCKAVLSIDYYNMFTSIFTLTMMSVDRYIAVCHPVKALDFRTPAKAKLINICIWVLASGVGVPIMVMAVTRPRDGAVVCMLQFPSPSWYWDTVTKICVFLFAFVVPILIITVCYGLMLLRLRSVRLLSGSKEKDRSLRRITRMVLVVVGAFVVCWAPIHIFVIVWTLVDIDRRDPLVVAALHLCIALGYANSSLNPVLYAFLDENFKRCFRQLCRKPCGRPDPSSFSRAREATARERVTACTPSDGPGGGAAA
T2 sequence (P32300 whole entry): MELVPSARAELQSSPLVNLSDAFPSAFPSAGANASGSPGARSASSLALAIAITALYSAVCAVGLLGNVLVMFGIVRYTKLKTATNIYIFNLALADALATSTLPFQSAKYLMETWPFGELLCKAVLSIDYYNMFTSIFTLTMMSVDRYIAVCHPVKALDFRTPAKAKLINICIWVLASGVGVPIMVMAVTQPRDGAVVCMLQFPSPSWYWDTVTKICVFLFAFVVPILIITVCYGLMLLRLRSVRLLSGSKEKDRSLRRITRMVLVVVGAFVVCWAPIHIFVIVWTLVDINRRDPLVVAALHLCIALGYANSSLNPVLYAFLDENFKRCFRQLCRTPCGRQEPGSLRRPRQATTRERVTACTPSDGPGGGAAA

SMILES | cAMP α (HA-mouse μOP) | IC50 (HA-mouse μOP) | cAMP pIC50 (HA-mouse μOP) | cAMP α (FLAG-mouse δOP) | IC50 (FLAG-mouse δOP) | cAMP pIC50 (FLAG-mouse δOP) | cAMP pIC50 (FLAG-mouse κOP) | cAMP α (FLAG-mouse κOP) | IC50 (FLAG-mouse κOP) | alcohol intake, in words (C57Bl/6 wild-type mice [2]) | alcohol consumption, in words (previous reports) (C57Bl/6 wild-type mice [3]) | hyperlocomotion (previous reports) (WT mice [5]) | Binding pKi (δOP [6]) | Ki (δOP [6]) | Binding pKi (κOP) | Ki (κOP) | further results
CC[C@@H]1CN2CC[C@@]3(O)C(=Nc4cccc(OC)c43)[C@@H]2C[C@@H]1/C(=C\OC)C(=O)OC [7-OH MITRA, 7-hydroxymitragynine, reference compound] | 84 ± 3 | 0.016 µM | 7.8±0.1 | 80 ± 8 | 0.96 µM | *5.7 ± 0.2 (8) | *6.2 ± 0.3 (9) | 77 ± 5 | 1.04 µM | reduce alcohol intake | decrease alcohol consumption | caused both CPP and hyperlocomotion | 6.7 ± 0.1 (4) | 0.019 µM | 6.9 ± 0.1 (4) | 0.014 µM | β-arrestin 2 pEC50 (δOP [1]): 6.4 ± 0.3 (6); β-arrestin 2 α (δOP [1]; normalized to positive control Leu-Enk): 14 ± 1; conditioned place preference (previous report) (male, WT mice [4]): caused both CPP and hyperlocomotion
C=C[C@H]1CN2CCc3c([nH]c4cccc(OC)c34)[C@@H]2C[C@@H]1/C(=C\OC)C(=O)OC [PAYN, paynantheine, reference compound] | 100 ± 0 | 4.08 µM | *5.4 ± 0.1 (5) | 64 ± 13 | 3.55 µM | *5.6 ± 0.2 (4) | *5.3 ± 0.2 (4) | 95 ± 5 | 7.43 µM | reduce alcohol intake | decrease alcohol consumption | without causing hyperlocomotion | 5.3 ± 0.1 (5) | 7.82 µM | 5.5 ± 0.1 (5) | 4 µM | ethanol consumption in δOP KO mice, in words (δOP KO mice [7]): did not significantly decrease ethanol consumption; also recorded: alcohol consumption was not significantly altered; block of morphine analgesia (antagonist mode) (male mice; 10 mg·kg^−1, then morphine 6 mg·kg^−1 s.c. 10 minutes later): did not produce antinociception (paired, two-tailed t-test, t=0.6193, df=9, p=0.5511) or block morphine analgesia; antinociception (agonist mode) (male mice; 10 mg·kg^−1, 30 minutes after drug): did not produce antinociception; alcohol intake, in words (previous reports) (C57Bl/6 wild-type mice [3]; listed as Paynantheine): decrease alcohol intake; alcohol intake, in words (previous reports) (C57Bl/6 wild-type mice [3]; listed as paynantheine): significant reduction; Binding pKi (μOP [8]): 6.3 ± 0.1 (4); Ki (μOP [8]; read-out: Binding Ki): 0.052 µM; ambulation / locomotor activity (WT mice [9]): a trend towards decreased locomotor activity; seizure activity in δOP KO mice (δOP KO mice [10]): still present in δOP KO mice; seizure activity (wildtype mice; 10 mg·kg^−1): not showing overt signs of seizure activity; seizure activity (wildtype mice; 30 mg·kg^−1): induced seizures; conditioned place preference, brief paradigm (male, WT mice [11]): induces conditioned place aversion (CPA); conditioned place preference, extended protocol (male, WT mice [11]; four conditioning sessions each for drug and vehicle): does not produce place preference
C[C@@H](NC(=O)[C@@H](N)Cc1ccc(O)cc1)C(=O)NCC(=O)N(C)[C@@H](Cc1ccccc1)C(=O)NCCO [DAMGO, (2S)-2-[[2-[[(2R)-2-[[(2S)-2-Amino-3-(4-hydroxyphenyl)propanoyl]amino]propanoyl]amino]acetyl]-methylamino]-N-(2-hydroxyethyl)-3-phenylpropanamide, reference compound] | 100 | – | – | – | – | – | – | – | – | – | – | – | – | – | – | – | β-arrestin 2 α (μOP [12]): 100
